Laboratory results published in the supplement of paper PMC10627819.

Columns and labels:
B. subtilis 168 = experiment: Bliss interaction score (quartile over a dose matrix) (fitness difference); higher = more antagonism (negative = synergy)
How it was run: (§1)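 Fitness here means normalised growth, inferred for single drugs from the combination data. Growth was OD595 at entry into stationary phase, divided by the plate's robust no-drug mean and capped at 1. The Bliss score is observed minus expected fitness, with the expectation being the product, and its quartiles span technical, biological and donor/recipient replicates.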

S. aureus Newman [1] = experiment: as above
How it was run: as §1

S. pneumoniae D39V = experiment: as above
How it was run: as §1

S. aureus DSM 20231 [2] = experiment: as above
How it was run: as §1

S. aureus DSM 20231 [3] = experiment: fitness (endpoint OD595 vs no drug) (fraction); higher = more growth
How it was run: (§2)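 Background-subtracted growth curves were the basis for fitness, taken as the optical density at entry into stationary phase over the robust mean of no-drug control wells. A cap of 1 was applied. The curves came from OD595 readings every 30 min for 14 h at 37 °C, in 384-well plates seeded at OD595 0.01 with 30 µl, or 55 µl for S. pneumoniae.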

S. aureus Newman [4] = experiment: as above
How it was run: as §2

[5] = first compound 0.75 µg/mL, partner 0.625 µg/mL
[6] = first compound 0.75 µg/mL, partner 1.25 µg/mL
[7] = first compound 0.75 µg/mL, partner 2.5 µg/mL
[8] = first compound 1.5 µg/mL, partner 0.625 µg/mL
[9] = first compound 1.5 µg/mL, partner 1.25 µg/mL
[10] = first compound 1.5 µg/mL, partner 2.5 µg/mL
[11] = first compound 3 µg/mL, partner 0.625 µg/mL
[12] = first compound 3 µg/mL, partner 1.25 µg/mL
[13] = first compound 0.75 µg/mL, partner 12.5 µg/mL
[14] = first compound 0.75 µg/mL, partner 25 µg/mL
[15] = first compound 0.75 µg/mL, partner 50 µg/mL
[16] = first compound 1.5 µg/mL, partner 12.5 µg/mL
[17] = first compound 1.5 µg/mL, partner 50 µg/mL
[18] = first compound 3 µg/mL, partner 12.5 µg/mL
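Throughout, for Bliss interaction score (quartile over a dose matrix): first quartile when negative (synergy) and third quartile when positive (antagonism).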

O=C(N[C@H](CO)[C@H](O)c1ccc([N+](=O)[O-])cc1)C(Cl)Cl [Chloramphenicol] + CN(C)C(=O)C(CCN1CCC(O)(c2ccc(Cl)cc2)CC1)(c1ccccc1)c1ccccc1 [Loperamide]
Bliss interaction score (B. subtilis 168): -0.18 | Bliss interaction score (S. aureus Newman [1]): -0.0555 | Bliss interaction score (S. pneumoniae D39V): 0.146

O=C(N[C@H](CO)[C@H](O)c1ccc([N+](=O)[O-])cc1)C(Cl)Cl [Chloramphenicol] + CO[C@H]1/C=C/O[C@@]2(C)Oc3c(C)c(O)c4c(O)c(c(/C=N/N5CCN(C)CC5)c(O)c4c3C2=O)NC(=O)/C(C)=C\C=C\[C@H](C)[C@H](O)[C@@H](C)[C@@H](O)[C@@H](C)[C@H](OC(C)=O)[C@@H]1C [Rifampicin]
Bliss interaction score (S. aureus DSM 20231 [2]): 0.0582 | Bliss interaction score (S. aureus Newman [1]): 0.0185 | Bliss interaction score (S. pneumoniae D39V): 0.069

O=C(N[C@H](CO)[C@H](O)c1ccc([N+](=O)[O-])cc1)C(Cl)Cl [Chloramphenicol] + COc1cccc2c1C(=O)c1c(O)c3c(c(O)c1C2=O)C[C@@](O)(C(=O)CO)C[C@@H]3O[C@H]1C[C@H](N)[C@H](O)[C@H](C)O1 [Doxorubicin]
fitness (S. aureus DSM 20231 [3]; [5]): 0.646 | fitness (S. aureus DSM 20231 [3]; [6]): 0.698 | fitness (S. aureus DSM 20231 [3]; [7]): 0.663 | fitness (S. aureus DSM 20231 [3]; [8]): 0.572 | fitness (S. aureus DSM 20231 [3]; [9]): 0.569 | fitness (S. aureus DSM 20231 [3]; [10]): 0.525 | fitness (S. aureus DSM 20231 [3]; [11]): 0.118 | fitness (S. aureus DSM 20231 [3]; [12]): 0.121 | fitness (S. aureus Newman [4]; [5]): 0.676 | fitness (S. aureus Newman [4]; [6]): 0.72 | fitness (S. aureus Newman [4]; [7]): 0.685 | fitness (S. aureus Newman [4]; [8]): 0.564 | fitness (S. aureus Newman [4]; [9]): 0.562 | fitness (S. aureus Newman [4]; [10]): 0.579 | fitness (S. aureus Newman [4]; [11]): 0.326 | fitness (S. aureus Newman [4]; [12]): 0.291 | Bliss interaction score (B. subtilis 168): -0.0604 | Bliss interaction score (S. aureus Newman [1]): 0.132 | Bliss interaction score (S. pneumoniae D39V): -0.127

O=C(N[C@H](CO)[C@H](O)c1ccc([N+](=O)[O-])cc1)C(Cl)Cl [Chloramphenicol] + C[C@@H](O)[C@H]1C(=O)N2C(C(=O)O)=C(SCCNC=N)C[C@H]12 [Imipenem]
Bliss interaction score (S. aureus DSM 20231 [2]): 0.0442 | Bliss interaction score (S. aureus Newman [1]): -0.0316 | Bliss interaction score (S. pneumoniae D39V): -0.0662

O=C(N[C@H](CO)[C@H](O)c1ccc([N+](=O)[O-])cc1)C(Cl)Cl [Chloramphenicol] + Cc1ncc([N+](=O)[O-])n1CCO [Metronidazole]
fitness (S. aureus DSM 20231 [3]; [5]): 0.775 | fitness (S. aureus DSM 20231 [3]; [6]): 0.736 | fitness (S. aureus DSM 20231 [3]; [7]): 0.755 | fitness (S. aureus Newman [4]; [5]): 0.796 | fitness (S. aureus Newman [4]; first compound 0.75 µg/mL, partner 0.781 µg/mL): 0.789 | fitness (S. aureus Newman [4]; [6]): 0.819 | fitness (S. aureus Newman [4]; first compound 0.75 µg/mL, partner 1.562 µg/mL): 0.768 | fitness (S. aureus Newman [4]; [7]): 0.853 | fitness (S. aureus Newman [4]; first compound 0.75 µg/mL, partner 3.124 µg/mL): 0.752 | fitness (S. aureus Newman [4]; [8]): 0.555 | fitness (S. aureus Newman [4]; first compound 1.5 µg/mL, partner 0.781 µg/mL): 0.539 | fitness (S. aureus Newman [4]; [9]): 0.573 | fitness (S. aureus Newman [4]; first compound 1.5 µg/mL, partner 1.562 µg/mL): 0.527 | fitness (S. aureus Newman [4]; [10]): 0.564 | fitness (S. aureus Newman [4]; first compound 1.5 µg/mL, partner 3.124 µg/mL): 0.521 | fitness (S. aureus Newman [4]; [11]): 0.159 | fitness (S. aureus Newman [4]; [12]): 0.167 | fitness (S. aureus Newman [4]; first compound 3 µg/mL, partner 1.562 µg/mL): 0.172 | fitness (S. aureus Newman [4]; first compound 3 µg/mL, partner 3.124 µg/mL): 0.231 | Bliss interaction score (B. subtilis 168): 0.0423 | Bliss interaction score (S. aureus Newman [1]): -0.07 | Bliss interaction score (S. pneumoniae D39V): 0.0867

O=C(N[C@H](CO)[C@H](O)c1ccc([N+](=O)[O-])cc1)C(Cl)Cl [Chloramphenicol] + O=C1CN(/N=C/c2ccc([N+](=O)[O-])o2)C(=O)N1 [Nitrofurantoin]
Bliss interaction score (S. aureus DSM 20231 [2]): -0.0404 | Bliss interaction score (S. aureus Newman [1]): -0.0842 | Bliss interaction score (S. pneumoniae D39V): -0.157

O=C(N[C@H](CO)[C@H](O)c1ccc([N+](=O)[O-])cc1)C(Cl)Cl [Chloramphenicol] + O=C(O[C@@H]1Cc2c(O)cc(O)cc2O[C@@H]1c1cc(O)c(O)c(O)c1)c1cc(O)c(O)c(O)c1 [EGCG]
fitness (S. aureus DSM 20231 [3]; [13]): 0.653 | fitness (S. aureus DSM 20231 [3]; [14]): 0.646 | fitness (S. aureus DSM 20231 [3]; [15]): 0.669 | fitness (S. aureus DSM 20231 [3]; [16]): 0.56 | fitness (S. aureus DSM 20231 [3]; first compound 1.5 µg/mL, partner 25 µg/mL): 0.572 | fitness (S. aureus DSM 20231 [3]; [17]): 0.494 | fitness (S. aureus DSM 20231 [3]; [18]): 0.15 | fitness (S. aureus DSM 20231 [3]; first compound 3 µg/mL, partner 25 µg/mL): 0.136 | fitness (S. aureus DSM 20231 [3]; first compound 3 µg/mL, partner 50 µg/mL): 0.0905 | fitness (S. aureus Newman [4]; [13]): 0.649 | fitness (S. aureus Newman [4]; [14]): 0.699 | fitness (S. aureus Newman [4]; [15]): 0.699 | fitness (S. aureus Newman [4]; [16]): 0.602 | fitness (S. aureus Newman [4]; [17]): 0.509 | fitness (S. aureus Newman [4]; [18]): 0.189 | Bliss interaction score (B. subtilis 168): 0.103 | Bliss interaction score (S. aureus DSM 20231 [2]): 0.0831 | Bliss interaction score (S. pneumoniae D39V): -0.0762
